From patent publication US8288385B2, “6-(3-aza-bicyclo[3.1.0]hex-3-yl)-2-phenyl-pyrimidines” (Actelion Pharmaceuticals Ltd., priority 2009, dated 2012)

The molecules below were run against T1, human P2Y12 receptor (Homo sapiens, UniProt Q9H244) (assay: P2Y12 receptor binding assay). Settings: CHO cells with recombinant expression of the human P2Y12 receptor; tritium-labeled 2-methyl-S-ADP; RT, 2 hours.
T1 construct: expressed in transfected cells; host or cells: Chinese Hamster Ovary (CHO) cells
T1 sequence (Q9H244 whole entry): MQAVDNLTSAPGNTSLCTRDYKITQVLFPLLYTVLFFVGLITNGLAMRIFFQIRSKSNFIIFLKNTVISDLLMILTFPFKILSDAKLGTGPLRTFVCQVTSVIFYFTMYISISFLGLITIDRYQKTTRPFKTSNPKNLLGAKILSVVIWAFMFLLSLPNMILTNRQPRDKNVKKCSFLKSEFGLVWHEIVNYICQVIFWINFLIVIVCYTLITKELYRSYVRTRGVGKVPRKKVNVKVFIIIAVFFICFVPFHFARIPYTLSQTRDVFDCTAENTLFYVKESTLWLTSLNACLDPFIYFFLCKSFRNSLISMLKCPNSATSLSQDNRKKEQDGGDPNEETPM
Protocol: P2Y12 Receptor Binding Assay
Chinese Hamster Ovary (CHO) cells with recombinant expression of the human P2Y12 receptor were cultured in 24 well cell-culture plates. Cells were washed three times with binding buffer (50 mM Tris pH 7.4, 100 mM NaCl, 1 mM EDTA, 0.5% BSA). The cells were then incubated with 0.5 ml per well binding buffer containing tritium-labeled 2-methyl-thio-adenosine 5′-diphosphate (2-methyl-S-ADP) (between 100,000 and 300,000 dpm per well) and various concentrations of test compounds. After incubation at RT for 2 hours, cells were washed three times with binding buffer. Then, cells were solubilized by addition of 0.5 ml solubilization buffer (SDS, NaOH, EDTA). The content of each well was then transferred into beta-counter vials and 2.0 ml of Ultima Gold Scintillation liquid was added.

CCCCOC(=O)N1CCN(C(=O)[C@@H](NC(=O)c2cc(N3C[C@@H]4[C@@H](CC(=O)O)[C@@H]4C3)nc(-c3ccccc3)n2)C(C)C)CC1 [Example 24, 4-((S)-2-{[6-((1α,5α,6α)-6-Carboxymethyl-3-aza-bicyclo[3.1.0]hex-3-yl)-2-phenyl-pyrimidine-4-carbonyl]-amino}-3-methyl-butyryl)-piperazine-1-carboxylic acid butyl ester] and CCCCOC(=O)N1CCN(C(=O)[C@@H](NC(=O)c2cc(N3C[C@@H]4[C@H](CC(=O)O)[C@@H]4C3)nc(-c3ccccc3)n2)C(C)C)CC1 [Example 25, 4-((S)-2-{[6-((1α,5α,6β)-6-Carboxymethyl-3-aza-bicyclo[3.1.0]hex-3-yl)-2-phenyl-pyrimidine-4-carbonyl]-amino}-3-methyl-butyryl)-piperazine-1-carboxylic acid butyl ester] are the same in IC50: 13 nM for the first, 13 nM for the second.

Going from CCCCOC(=O)N1CCN(C(=O)[C@@H](NC(=O)c2cc(N3C[C@@H]4[C@H](CCC(=O)O)[C@@H]4C3)nc(-c3ccccc3)n2)C(C)C)CC1 [Example 26, 4-[(S)-2-({6-[(1α,5α,6β)-6-(2-Carboxy-ethyl)-3-aza-bicyclo[3.1.0]hex-3-yl]-2-phenyl-pyrimidine-4-carbonyl}-amino)-3-methyl-butyryl]-piperazine-1-carboxylic acid butyl ester] to CCCCOC(=O)N1CCN(C(=O)[C@@H](NC(=O)c2cc(N3C[C@@H]4[C@@H](CCC(=O)O)[C@@H]4C3)nc(-c3ccccc3)n2)C(C)C)CC1 [Example 27, 4-[(S)-2-({6-[(1α,5α,6α)-6-(2-Carboxy-ethyl)-3-aza-bicyclo[3.1.0]hex-3-yl]-2-phenyl-pyrimidine-4-carbonyl}-amino)-3-methyl-butyryl]-piperazine-1-carboxylic acid butyl ester], the IC50 rises from 59 nM to 151 nM (2.6-fold).

First: CCCCOC(=O)N1CCN(C(=O)[C@@H](NC(=O)c2cc(N3C[C@@H]4[C@H](C3)[C@@H]4C(=O)O)nc(-c3ccc(F)cc3)n2)C(C)C)CC1 [Example 28, (1α,5α,6β)-3-[6-[(S)-1-(4-Butoxycarbonyl-piperazine-1-carbonyl)-2-methyl-propylcarbamoyl]-2-(4-fluoro-phenyl)-pyrimidin-4-yl]-3-aza-bicyclo[3.1.0]hexane-6-carboxylic acid]
Second: CCCCOC(=O)N1CCN(C(=O)[C@@H](NC(=O)c2cc(N3C[C@@H]4[C@H](C3)[C@@H]4C(=O)O)nc(-c3ccc(C)cc3)n2)C(C)C)CC1 [Example 29, (1α,5α,6β)-3-{6-[(S)-1-(4-Butoxycarbonyl-piperazine-1-carbonyl)-2-methyl-propylcarbamoyl]-2-p-tolyl-pyrimidin-4-yl}-3-aza-bicyclo[3.1.0]hexane-6-carboxylic acid]
The IC50 of the first is 2.6-fold lower: 7 nM for the first, 18 nM for the second.

CCCCOC(=O)N1CCN(C(=O)[C@@H](NC(=O)c2cc(N3C[C@@H]4[C@H](C3)[C@@H]4C(=O)O)nc(-c3cccc(C(F)(F)F)c3)n2)C(C)C)CC1 [Example 30, (1α,5α,6β)-3-[6-[(S)-1-(4-Butoxycarbonyl-piperazine-1-carbonyl)-2-methyl-propylcarbamoyl]-2-(3-trifluoromethyl-phenyl)-pyrimidin-4-yl]-3-aza-bicyclo[3.1.0]hexane-6-carboxylic acid] and CCCCOC(=O)N1CCN(C(=O)[C@H](C)NC(=O)c2cc(N3C[C@@H]4[C@H](C3)[C@H]4C(=O)O)nc(-c3ccccc3)n2)CC1 [Example 34, (1α,5α,6α)-3-{6-[(S)-2-(4-Butoxycarbonyl-piperazin-1-yl)-1-methyl-2-oxo-ethylcarbamoyl]-2-phenyl-pyrimidin-4-yl}-3-aza-bicyclo[3.1.0]hexane-6-carboxylic acid] are within 1.5-fold of each other in IC50: 250 nM for the first, 229 nM for the second.

Compared with CCCCOC(=O)N1CCN(C(=O)C(NC(=O)c2cc(N3CC4C(C3)C4C(=O)O)nc(-c3ccccc3)n2)C(C)C)CC1C [Example 31, (1α,5α,6β)-3-{6-[(S)-1-((R)-4-Butoxycarbonyl-3-methyl-piperazine-1-carbonyl)-2-methyl-propylcarbamoyl]-2-phenyl-pyrimidin-4-yl}-3-aza-bicyclo[3.1.0]hexane-6-carboxylic acid], CC(C)[C@H](NC(=O)c1cc(N2C[C@@H]3C(C(=O)O)[C@@H]3C2)nc(-c2ccccc2)n1)C(=O)N1CCN(C(=O)OCc2ccccc2)[C@H](C)C1 (stereo partly drawn) [Example 32, (1α,5α,6β)-3-{6-[(S)-1-((R)-4-Benzyloxycarbonyl-3-methyl-piperazine-1-carbonyl)-2-methyl-propylcarbamoyl]-2-phenyl-pyrimidin-4-yl}-3-aza-bicyclo[3.1.0]hexane-6-carboxylic acid] is 9-fold higher in IC50: 53 nM for the first, 477 nM for the second.

CCCCOC(=O)N1CCN(C(=O)CNC(=O)c2cc(N3C[C@@H]4[C@H](C3)[C@@H]4C(=O)O)nc(-c3ccccc3)n2)CC1 [Example 33, (1α,5α,6β)-3-{6-[2-(4-Butoxycarbonyl-piperazin-1-yl)-2-oxo-ethylcarbamoyl]-2-phenyl-pyrimidin-4-yl}-3-aza-bicyclo[3.1.0]hexane-6-carboxylic acid] and CCCCOC(=O)N1CCN(C(=O)[C@H](C)NC(=O)c2cc(N3C[C@@H]4[C@H](C3)[C@@H]4C(=O)O)nc(-c3ccccc3)n2)CC1 [Example 35, (1α,5α,6β)-3-{6-[(S)-2-(4-Butoxycarbonyl-piperazin-1-yl)-1-methyl-2-oxo-ethylcarbamoyl]-2-phenyl-pyrimidin-4-yl}-3-aza-bicyclo[3.1.0]hexane-6-carboxylic acid] are within 1.5-fold of each other in IC50: 68 nM for the first, 51 nM for the second.

CCCCOC(=O)N1CCN(C(=O)[C@H](CC)NC(=O)c2cc(N3C[C@@H]4[C@H](C3)[C@@H]4C(=O)O)nc(-c3ccccc3)n2)CC1 [Example 36, (1α,5α,6β)-3-{6-[(S)-1-(4-Butoxycarbonyl-piperazine-1-carbonyl)-propylcarbamoyl]-2-phenyl-pyrimidin-4-yl}-3-aza-bicyclo[3.1.0]hexane-6-carboxylic acid] and CCCCOC(=O)N1CCN(C(=O)[C@H](CCC)NC(=O)c2cc(N3C[C@@H]4[C@H](C3)[C@@H]4C(=O)O)nc(-c3ccccc3)n2)CC1 [Example 37, (1α,5α,6β)-3-{6-[(S)-1-(4-Butoxycarbonyl-piperazine-1-carbonyl)-butylcarbamoyl]-2-phenyl-pyrimidin-4-yl}-3-aza-bicyclo[3.1.0]hexane-6-carboxylic acid] are within 1.5-fold of each other in IC50: 96 nM for the first, 123 nM for the second.

CCCCOC(=O)N1CCN(C(=O)[C@H](CCCC)NC(=O)c2cc(N3C[C@@H]4[C@H](C3)[C@@H]4C(=O)O)nc(-c3ccccc3)n2)CC1 [Example 38, (1α,5α,6β)-3-{6-[(S)-1-(4-Butoxycarbonyl-piperazine-1-carbonyl)-pentylcarbamoyl]-2-phenyl-pyrimidin-4-yl}-3-aza-bicyclo[3.1.0]hexane-6-carboxylic acid] and CCCCOC(=O)N1CCN(C(=O)[C@H](CC(C)C)NC(=O)c2cc(N3C[C@@H]4[C@H](C3)[C@@H]4C(=O)O)nc(-c3ccccc3)n2)CC1 [Example 39, (1α,5α,6β)-3-{6-[(S)-1-(4-Butoxycarbonyl-piperazine-1-carbonyl)-3-methyl-butylcarbamoyl]-2-phenyl-pyrimidin-4-yl}-3-aza-bicyclo[3.1.0]hexane-6-carboxylic acid] are within 1.5-fold of each other in IC50: 136 nM for the first, 124 nM for the second.

CCCCOC(=O)N1CCN(C(=O)[C@H](CC2CC2)NC(=O)c2cc(N3C[C@@H]4[C@H](C3)[C@@H]4C(=O)O)nc(-c3ccccc3)n2)CC1 [Example 40, (1α,5α,6β)-3-{6-[(S)-2-(4-Butoxycarbonyl-piperazin-1-yl)-1-cyclopropylmethyl-2-oxo-ethylcarbamoyl]-2-phenyl-pyrimidin-4-yl}-3-aza-bicyclo[3.1.0]hexane-6-carboxylic acid] showed an IC50 of 143 nM.
